According to patent US10583206B2, “Radioactive probe for detecting hydrogen sulfide” (KYUNGPOOK NATIONAL UNIVERSITY INDUSTRY-ACADEMIC COOPERATION …, priority 2015, dated 2020):
Where two headings read alike, the source gives them in different places.

Experiments:
[1] = Hydrogen sulfide selectivity test: decomplexation by Na2S2O3; type: physicochemical; settings: 100 μM or (1 mM), 37° C. for 15 minutes
Experimental: (§1) In addition to hydrogen sulfide, many different anions, radicals, etc. exist in the body. Therefore, to examine selective reactivity of the ^64Cu-labeled complex compound according to the present disclosure for sulfide ions, the following experiment was performed.
(§2) About 45 μCi-55 μCi of the ^64Cu-labeled complex compound (250 μL of triple distilled water) was mixed with 100 μM of various anion solutions (250 μL of triple distilled water) including biothiol, and stirred at 37° C. for 15 minutes.
(§3) Formation of copper sulfide (^64CuS) was quantified by using a radio-TLC scanner.
(§4) Various biothiol or salt solutions were prepared by dissolving the compounds in triple distilled water.
(§5) In Table, concentrations of all biothiols and other competitive materials are 100 μM. Further, specific concentrations of biothiols, anions, and oxidants used in Table are as follows: [L-Cys (1 mM); L-Hcys (10 mM); GSH (10 mM); DL-dithiothretitol (DTT, 100 μM); L-ascorbic acid (L-AsA, 10 mM); 2-mercaptoethanol (2-ME, 10 mM); NaCl (10 mm); KI (1 mM); Na2S2O3 (1 mM); Na2S2O5 (1 mM); NaOAc (1 mM); H2O2 ([…]); NaClO4 (100 μM); NaHCO3 (100 μM); NaNO2 ([…]); NaN3 (100 μM); ATB 337 (100 μM); diallyl trisulphide (100 μM)].

[2] = Hydrogen sulfide selectivity test: decomplexation by NaNO2; type: physicochemical; settings: NaNO2 (100 µM); 37° C. for 15 minutes
Experimental: as §1, §2, §3, §4, §5

[3] = Hydrogen sulfide selectivity test: decomplexation by DAT (diallyl trisulphide); type: physicochemical; settings: DAT = diallyl trisulphide (100 μM); 37° C. for 15 minutes
Experimental: as §1, §2, §3, §4, §5

[4] = Hydrogen sulfide selectivity test: decomplexation by Na2S2O5; type: physicochemical; settings: 100 μM or (1 mM), 37° C. for 15 minutes
Experimental: as §1, §2, §3, §4, §5

[5] = Test of hydrogen sulfide detection over time (^64CuS formation, radio-TLC); type: physicochemical; set-up: unit not given here; settings: 100 μM NaHS, 37° C.
Experimental: To examine reactivity of the ^64Cu-labeled complex compound according to the present disclosure over time, the following experiment was performed.
A detailed experimental method is as follows.
About 45 μCi-50 μCi of ^64Cu-labeled complex compound (250 μL of triple distilled water) was mixed with 100 μM of NaHS solution ([…] of triple distilled water), and stirred at 37° C. for 15 minutes. Formation of copper sulfide (^64CuS) was quantified by using a radio-TLC scanner.

[6] = Hydrogen sulfide selectivity test: decomplexation by H2O2; type: physicochemical; settings: H2O2 (100 µM); 37° C. for 15 minutes
Experimental: as §1, §2, §3, §4, §5

[7] = tested on: Paw inflammation model; type: in vivo, Balb/c or ICR mice
Experimental: (1) Paw Pain Inflammation Model
A small amount of CFA (complete Freund's adjuvant) or formalin was injected into only one paw (right) of the hind paws of Balb/c or ICR mice to establish inflammation models. 1 day after injection of the inflammation inducer, the mice were used in imaging or other in vivo experiments.
It is a known fact that inflamed sites show high concentrations of hydrogen sulfide.
Nuclear medicine imaging was measured by using an Inveon PET/CT system of Siemens Healthcare, and optical imaging was measured by using IVIS spectrum CT equipment. Cherenkov radiation emitted from ^64Cu was measured by using a highly sensitive CCD (charge-coupled device) camera.
Imaging was measured for 1 minute to 5 minutes, and a radiation dose was about 50 μCi to 2000 μCi, and photographs were variously taken as needed, such as immediately after first injection, at 1 hour, 4 hours, and 24 hours later.

[8] = Hydrogen sulfide selectivity test: decomplexation by NaN3; type: physicochemical; settings: NaN3 (100 μM); 37° C. for 15 minutes
Experimental: as §1, §2, §3, §4, §5

[9] = Hydrogen sulfide selectivity test: decomplexation by Kl; type: physicochemical; settings: 100 μM or KI (1 mM), 37° C. for 15 minutes
Experimental: as §1, §2, §3, §4, §5

[10] = Hydrogen sulfide selectivity test: decomplexation by NaClO4; type: physicochemical; settings: NaClO4 (100 μM); 37° C. for 15 minutes
Experimental: as §1, §2, §3, §4, §5

[11] = Hydrogen sulfide selectivity test: decomplexation by NaOAc; type: physicochemical; settings: 100 μM or (1 mM), 37° C. for 15 minutes
Experimental: as §1, §2, §3, §4, §5

[12] = Hydrogen sulfide selectivity test: decomplexation by Hcys; type: physicochemical; settings: 100 μM or L-Hcys (10 mM), 37° C. for 15 minutes
Experimental: as §1, §2, §3, §4, §5

[13] = Hydrogen sulfide selectivity test: decomplexation by NaHCO3; type: physicochemical; settings: NaHCO3 (100 μM); 37° C. for 15 minutes
Experimental: as §1, §2, §3, §4, §5

[14] = Hydrogen sulfide selectivity test: decomplexation by GSH; type: physicochemical; settings: 100 μM or GSH (10 mM), 37° C. for 15 minutes
Experimental: as §1, §2, §3, §4, §5

[15] = tested on: Myocardial infarction model; test: Imaging study in myocardial infarction model (PET); type: in vivo, Sprague-Dawley rats
Text: (2) Myocardial Infarction Model
A myocardial infarction model was established by using Sprague-Dawley rats (12-week-old or older, about 250 g). 2 days later after induction of myocardial infarction by occlusion of the coronary arteries in the heart, the rats were used in imaging tests. It is a known fact that myocardial infarction sites show high concentrations of hydrogen sulfide.
It is known that myocardial infarction sites show high concentrations of hydrogen sulfide. Thus, after induction of myocardial infarction by coronary artery occlusion in rats, 50 μCi-900 μCi of the ^64Cu-labeled complex compound was injected via the tails of the rats, and uptake in the myocardial infarction site was examined over time by PET imaging.
36 hours after establishment of the myocardial infarction model, 730 μCi of the radioisotope-labeled complex compound of the present disclosure was injected and nuclear medicine imaging was performed. 2 days later, […] of FDG was injected into the same rat, and then FDG-PET images were obtained. Results are shown in FIGS. 15 to 17 (in the nuclear medicine imaging, the upper image represents a transverse image, and the lower image represents a coronal image).

[16] = Hydrogen sulfide selectivity test: decomplexation by DTT; type: physicochemical; settings: DL-dithiothretitol (DTT, 100 μM); 37° C. for 15 minutes
Experimental: as §1, §2, §3, §4, §5

[17] = Hydrogen sulfide selectivity test: decomplexation by L-AsA; type: physicochemical; settings: L-ascorbic acid; 100 μM or (L-AsA, 10 mM); 37° C. for 15 minutes
Experimental: as §1, §2, §3, §4, §5

SMILES | Decomplexation [%] [1] [%] | Decomplexation [%] [2] [%] | Decomplexation [%] [3] [%] | Decomplexation [%] [4] [%] | Formation of copper sulfide (^64CuS) over time ([5]; 10 sec) | Formation of copper sulfide (^64CuS) over time ([5]; 30 sec) | Formation of copper sulfide (^64CuS) over time ([5]; 60 sec) | Formation of copper sulfide (^64CuS) over time ([5]; 5 min) | Formation of copper sulfide (^64CuS) over time ([5]; 10 min) | Formation of copper sulfide (^64CuS) over time ([5]; 15 min) | Decomplexation [%] [6] [%] | Decomplexation [%] [8] [%] | Decomplexation [%] [9] [%] | Decomplexation [%] [10] [%] | Decomplexation [%] [11] [%] | Decomplexation [%] [12] [%] | Decomplexation [%] [13] [%] | Decomplexation [%] [14] [%] | Decomplexation [%] [16] [%] | Decomplexation [%] [17] [%] | also measured
C1C[N]2CC[N]3CC[N]4CC[N]1[64Cu]243 [Example 1, ^64Cu-labeled cyclen] | 0.4 ± 0.0 | 0.6 ± 0.0 | 0.4 ± 0.3 | 0.5 ± 0.2 | 13 | 17 | 21 | 100 | 100 | 100 | 0.5 ± 0.4 | 0.3 ± 0.2 | 0.7 ± 0.2 | 0.6 ± 0.2 | 0.6 ± 0.1 | 1.4 ± 0.4 | 0.6 ± 0.3 | 0.7 ± 0.0 | 0.6 ± 0.4 | 0.5 ± 0.1 | retention time in the animal models ([7]; ICR and Balb/c, mouse, in vivo): ≥ 24 h; uptake in inflamed paw versus opposite paw ([7]; PET imaging): higher uptake in the inflamed right paw than in the opposite paw; uptake in the CFA-induced inflamed site ([7]; optical imaging): increased uptake; uptake in the myocardial infarction site ([15]; image taken at 24 hours after injection): high uptake was detected in the myocardial infarction site
C1C[N]2CC[N]3CC[N]1[64Cu]23 [Example 20, ^64Cu-labeled TACN] | 0.5 ± 0.0 | 0.4 ± 0.0 | 0.7 ± 0.6 | 0.5 ± 0.2 | 0 | 0 | 5 | 13 | 60 | 60 | 0.8 ± 0.3 | 0.4 ± 0.0 | 0.4 ± 0.2 | 0.4 ± 0.1 | 0.3 ± 0.0 | 1.1 ± 0.5 | 0.6 ± 0.4 | 2.6 ± 0.0 | 0.9 ± 0.1 | 0.8 ± 0.5 | detection of the inflamed site immediately after injection ([7]; imaging immediately after injection): detected in imaging immediately after injection; uptake in inflamed paw versus opposite paw ([7]; imaging performed after 1 hour, also PET imaging): higher uptake; uptake / visualisation of the myocardial infarction site ([15]; PET imaging after injection): the myocardial infarction site was clearly observed
